Data taken from PubChem BioAssay AID248 (DTP/NCI, 2004).
Where “and” joins values, the source holds several entries; their conditions need not be identical. Identical values can stand only once. Inconclusive results and toxic doses are left out.

System: L1210 leukemia ip in BDF1 mice, survival T/C
Test: NCI In Vivo Anticancer Drug Screen. Data for tumor model L1210 Leukemia (intraperitoneal) in B6D2F1 (BDF1) mice
Settings: endpoint: mean survival time, higher = longer survival
Procedure, shortened: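 Transplanted-tumor mice were given test agent; controls received vehicle only. Survival readings from the two groups were divided (treated over control).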

[1] = dose: 75.0 mg/kg/injection, schedule: Q01DX001 (ip), vehicle: saline
[2] = dose: 100.0 mg/kg/injection, schedule: Q01DX001 (ip), vehicle: saline
[3] = dose: 200.0 mg/kg/injection, schedule: Q01DX001 (ip), vehicle: saline
[4] = dose: 200.0 mg/kg/injection, schedule: Q04DX003 (ip), vehicle: saline with Tween-80
[5] = dose: 400.0 mg/kg/injection, schedule: Q04DX003 (ip), vehicle: saline with Tween-80
[6] = dose: 100.0 mg/kg/injection, schedule: Q04DX003 (ip), vehicle: saline with Tween-80
[7] = dose: 50.0 mg/kg/injection, schedule: Q01DX001 (ip), vehicle: Klucel (hydroxypropylcellulose) (HPC)
[8] = dose: 100.0 mg/kg/injection, schedule: Q01DX001 (ip), vehicle: Klucel (hydroxypropylcellulose) (HPC)
[9] = dose: 200.0 mg/kg/injection, schedule: Q01DX001 (ip), vehicle: Klucel (hydroxypropylcellulose) (HPC)
[10] = dose: 100.0 mg/kg/injection, schedule: Q01DX009 (ip), vehicle: saline with Tween-80
[11] = dose: 400.0 mg/kg/injection, schedule: Q01DX001 (ip), vehicle: saline
[12] = dose: 100.0 mg/kg/injection, schedule: Q01DX009 (ip), vehicle: Klucel (hydroxypropylcellulose) (HPC)
[13] = dose: 200.0 mg/kg/injection, schedule: Q01DX009 (ip), vehicle: Klucel (hydroxypropylcellulose) (HPC)
[14] = dose: 400.0 mg/kg/injection, schedule: Q01DX009 (ip), vehicle: Klucel (hydroxypropylcellulose) (HPC)

`O=[N+]([O-])/C=C/c1ccco1` was tested, and the T/C (dose: 18.75 mg/kg/injection, schedule: Q04DX003 (ip), vehicle: saline with Tween-80) was 101 % of control, the T/C (dose: 37.5 mg/kg/injection, schedule: Q04DX003 (ip), vehicle: saline with Tween-80) was 95 % of control and the T/C (dose: 75.0 mg/kg/injection, schedule: Q04DX003 (ip), vehicle: saline with Tween-80) was 101 % of control.
For `Nc1nnnc2c1ncn2C1OC(CO)C(O)C1O` (centres undefined), the T/C (dose: 1.6 mg/kg/injection, schedule: Q01DX009 (ip), vehicle: saline) was 120 % of control, the T/C (dose: 2.8 mg/kg/injection, schedule: Q01DX009 (ip), vehicle: saline) was 108 % of control and the T/C (dose: 4.8 mg/kg/injection, schedule: Q01DX009 (ip), vehicle: saline) was 117 % of control. For the same molecule, the T/C (dose: 9.5 mg/kg/injection, schedule: Q01DX001 (ip), vehicle: saline) was 106 % of control, the T/C (dose: 12.5 mg/kg/injection, schedule: Q04DX002 (ip), vehicle: saline) was 92 % of control and the T/C (dose: 14.0 mg/kg/injection, schedule: Q01DX009 (ip), vehicle: saline) was 123 % of control. The T/C (dose: 19.0 mg/kg/injection, schedule: Q01DX001 (ip), vehicle: saline) was 103 % of control and 117 % of control, the T/C (dose: 25.0 mg/kg/injection, schedule: Q04DX002 (ip), vehicle: saline) was 100 % of control and the T/C (dose: 38.0 mg/kg/injection, schedule: Q01DX001 (ip), vehicle: saline) was 106 % of control and 120 % of control. The T/C (dose: 38.0 mg/kg/injection, schedule: Q01DX009 (ip), vehicle: saline) was 105 % of control, the T/C (dose: 50.0 mg/kg/injection, schedule: Q04DX002 (ip), vehicle: saline) was 103 % of control and the T/C [1] was 106 % of control.
For `c1ccc(CCCn2cnc3cnccc32)cc1`, the T/C (dose: 5.0 mg/kg/injection, schedule: Q01DX001 (ip), vehicle: saline) was 100 % of control, the T/C (dose: 10.0 mg/kg/injection, schedule: Q01DX001 (ip), vehicle: saline) was 103 % of control and the T/C (dose: 20.0 mg/kg/injection, schedule: Q01DX001 (ip), vehicle: saline) was 105 % of control. For the same molecule, the T/C (dose: 40.0 mg/kg/injection, schedule: Q01DX001 (ip), vehicle: saline) was 100 % of control and the T/C [2] was 96 % of control.
`C1=C(c2ccccc2)N(C2CCCCCC2)C(c2ccccc2)=CN1Cc1ccccc1` was tested, and the T/C (dose: 100.0 mg/kg/injection, schedule: Q04DX002 (ip), vehicle: Klucel (hydroxypropylcellulose) (HPC)) was 96 % of control, the T/C (dose: 200.0 mg/kg/injection, schedule: Q04DX002 (ip), vehicle: Klucel (hydroxypropylcellulose) (HPC)) was 107 % of control and the T/C (dose: 400.0 mg/kg/injection, schedule: Q04DX002 (ip), vehicle: Klucel (hydroxypropylcellulose) (HPC)) was 100 % of control.
`NCC(O)C(O)C(O)C(O)CO` (centres undefined) was tested, and the T/C [2] was 103 % of control and the T/C [3] was 95 % of control.
`COC(=O)C(CCC(=O)C=[N+]=N)NC(=O)C(Cl)Cl` (centres undefined) was tested, and the T/C (dose: 35.0 mg/kg/injection, schedule: Q01DX001 (ip), vehicle: saline) was 122 % of control, the T/C [1] was 122 % of control and the T/C (dose: 125.0 mg/kg/injection, schedule: Q01DX001 (ip), vehicle: saline) was 111 % of control. For the same molecule, the T/C [4] was 167 % of control, the T/C (dose: 266.0 mg/kg/injection, schedule: Q01DX001 (ip), vehicle: saline) was 98 % of control and the T/C [5] was 124 % of control. The T/C (dose: 600.0 mg/kg/injection, schedule: Q01DX001 (ip), vehicle: saline) was 117 % of control.
With `CCC(C)C(C(=O)O)c1ccccc1` (centres undefined) the T/C [6] was 100 % of control, the T/C [4] was 98 % of control and the T/C [5] was 94 % of control.
`Cc1c(N)nc(C(CC(N)=O)NCC(N)C(N)=O)nc1C(=O)NC(C(=O)NC(C)C(O)C(C)C(=O)NC(C(=O)NCCc1nc(-c2nc(C(=O)NCCC[S+](C)C)cs2)cs1)C(C)O)C(OC1OC(CO)C(O)C(O)C1OC1OC(CO)C(O)C(OC(N)=O)C1O)c1cnc[nH]1` (centres undefined) was tested, and the T/C (dose: 1.0 mg/kg/injection, schedule: Q01DX009 (ip), vehicle: Klucel (hydroxypropylcellulose) (HPC)) was 106 % of control, the T/C (dose: 2.0 mg/kg/injection, schedule: Q01DX009 (ip), vehicle: Klucel (hydroxypropylcellulose) (HPC)) was 95 % of control and the T/C (dose: 4.0 mg/kg/injection, schedule: Q01DX009 (ip), vehicle: Klucel (hydroxypropylcellulose) (HPC)) was 107 % of control. The T/C (dose: 8.0 mg/kg/injection, schedule: Q01DX009 (ip), vehicle: Klucel (hydroxypropylcellulose) (HPC)) was 101 % of control.
With `Cc1nc(N)[nH]c(=O)c1CCCNS(=O)(=O)c1ccccc1` the T/C [7] was 105 % of control, the T/C [8] was 94 % of control and the T/C [9] was 90 % of control.
For `C=CCC1C(=O)CC(C)(C)CC1=O`, the T/C [6] was 103 % of control, the T/C [4] was 103 % of control and the T/C [5] was 111 % of control.
For `CCCCOC(=O)c1ccc(NC(=O)Nc2cccc(F)c2)cc1`, the T/C [10] was 95 % of control.
For `CCOC(=O)N/N=C/c1ccc([N+](=O)[O-])cc1`, the T/C [2] was 94 % of control, the T/C [3] was 98 % of control and the T/C [11] was 102 % of control.
`CCCCCCCCCCCC(=O)NC(=S)Nc1ccccc1OCC` was tested, and the T/C (dose: 100.0 mg/kg/injection, schedule: Q04DX003 (ip), vehicle: Klucel (hydroxypropylcellulose) (HPC)) was 89 % of control, the T/C (dose: 200.0 mg/kg/injection, schedule: Q04DX003 (ip), vehicle: Klucel (hydroxypropylcellulose) (HPC)) was 90 % of control and the T/C (dose: 400.0 mg/kg/injection, schedule: Q04DX003 (ip), vehicle: Klucel (hydroxypropylcellulose) (HPC)) was 89 % of control.
In the case of `O=[N+]([O-])c1ccccc1N=Nc1c(O)[nH]c2cccc(C(F)(F)F)c12`, the T/C (dose: 100.0 mg/kg/injection, schedule: Q01DX001 (ip), vehicle: acetone) is reported as 97 % of control, the T/C [2] is reported as 103 % of control and the T/C (dose: 200.0 mg/kg/injection, schedule: Q01DX001 (ip), vehicle: acetone) is reported as 97 % of control. For the same molecule, the T/C (dose: 400.0 mg/kg/injection, schedule: Q01DX001 (ip), vehicle: acetone) was 97 % of control and the T/C [11] was 87 % of control.
With `CCOC(=O)CCC(N)C(=O)O` (centres undefined) the T/C (dose: 100.0 mg/kg/injection, schedule: Q04DX002 (ip), vehicle: saline) was 110 % of control, the T/C (dose: 200.0 mg/kg/injection, schedule: Q04DX002 (ip), vehicle: saline) was 106 % of control and the T/C (dose: 400.0 mg/kg/injection, schedule: Q04DX002 (ip), vehicle: saline) was 102 % of control.
With `C[CH2][Sn]([I])([CH2]C)[CH2]C` the T/C (dose: 1.56 mg/kg/injection, schedule: Q01DX009 (ip), vehicle: saline) was 92 % of control, the T/C (dose: 3.13 mg/kg/injection, schedule: Q01DX009 (ip), vehicle: saline) was 94 % of control and the T/C (dose: 6.25 mg/kg/injection, schedule: Q01DX009 (ip), vehicle: saline) was 89 % of control. For the same molecule, the T/C (dose: 25.0 mg/kg/injection, schedule: Q04DX002 (ip), vehicle: gum acacia) was 87 % of control.
`CCOc1ccccc1NC(=O)Oc1cc(C)c(Cl)c(C)c1` was tested, and the T/C [12] was 104 % of control, the T/C [13] was 98 % of control and the T/C [14] was 100 % of control.
For `CN(C)c1ccc(N=[N+]=[N-])cc1`, the T/C (dose: 100.0 mg/kg/injection, schedule: Q04DX002 (ip), vehicle: saline with Tween-80) was 98 % of control, the T/C (dose: 200.0 mg/kg/injection, schedule: Q04DX002 (ip), vehicle: saline with Tween-80) was 95 % of control and the T/C (dose: 400.0 mg/kg/injection, schedule: Q04DX002 (ip), vehicle: saline with Tween-80) was 98 % of control.
For `COc1ccc(NC(=O)Oc2ccc(Br)cc2Br)c(OC)c1`, the T/C [12] was 108 % of control and the T/C [13] was 113 % of control.
For `N#CC(N)=NC1CCC(C2CCC(O)CC2)CC1` (centres undefined), the T/C [12] was 94 % of control, the T/C [13] was 96 % of control and the T/C [14] was 96 % of control.
`CON(C)CCO` was tested, and the T/C (dose: 25.0 mg/kg/injection, schedule: Q01DX001 (ip), vehicle: Klucel (hydroxypropylcellulose) (HPC)) was 107 % of control, the T/C [7] was 107 % of control and the T/C [8] was 105 % of control and 107 % of control. The T/C [9] was 102 % of control.
For `N=C(N)Cc1ccc(CCc2ccc(CC(=N)N)cc2)cc1`, the T/C (dose: 12.5 mg/kg/injection, schedule: Q01DX Z (oral), vehicle: saline) was 97 % of control, the T/C (dose: 25.0 mg/kg/injection, schedule: Q01DX Z (oral), vehicle: saline) was 100 % of control and the T/C (dose: 50.0 mg/kg/injection, schedule: Q01DX Z (oral), vehicle: saline) was 97 % of control. For the same molecule, the T/C (dose: 100.0 mg/kg/injection, schedule: Q01DX Z (oral), vehicle: saline) was 100 % of control.
`CCCCNC(=O)c1ccc(C)c(OCc2ccccc2)c1[N+](=O)[O-]` was tested, and the T/C [2] was 108 % of control, the T/C [3] was 87 % of control and the T/C [11] was 90 % of control.
With `COc1ccc(C)cc1NC(=O)OCCOc1cc(C)c(Cl)c(C)c1` the T/C (dose: 50.0 mg/kg/injection, schedule: Q01DX009 (ip), vehicle: saline with Tween-80) was 90 % of control, the T/C [10] was 87 % of control and the T/C (dose: 200.0 mg/kg/injection, schedule: Q01DX009 (ip), vehicle: saline with Tween-80) was 87 % of control.
